Like-named read-outs stand apart in the source and are kept apart here.
What was measured:
S1P1 [1] = target: T1, S1P1 (Homo sapiens, UniProt P21453); assay: S1P1 internalization assay in S1P1-U2OS cells (cell imaging); type: cell-based; details: U2OS cells expressing S1P1-EGFP, 1 hour
Protocol: Cellular functional assays: Internalization of Sphingosine-1-phosphate receptor 1 (S1P1) in a human Cell line (U2OS) in a 384-well format using a Cell Imaging analysis.
The S1P1 internalization assay was performed in 384 well plates (Corning® 384 black with clear bottom 3712) using S1P1-U2OS cells from Biolmage (C039A), a human epithelial cell line (Human Bone Osteosarcoma Epithelial Cells). These cells expressed the human S1P1 Receptor fused to the green fluorescent protein (EGFP). A standard CMV promoter (cytomegalovirus promoter) controls the expression of S1P1-EGFP and continuous expression was maintained by addition of geneticin to the culture medium.
S1P1Receptor desensitization induced the internalization of the membrane-localized S1P1-EGFP fusion protein to endosomes, which can be monitored by cell imaging analysis. The cells are plated in low serum medium (Dulbecco's Modified Eagle Medium (DMEM) with Glutamax-1 and high glucose, 1% Penicillin/Streptomycin, 1% Fetal Calf Serum (FCS), 0.5 mg/ml Geneticin) overnight.
The next day, S1P1-U2OS cells are incubated in 20 μl serum free medium (DMEM with Glutamax-1 and high glucose, 0.1% of fatty-acid free Bovin Serum Albumin (BSA), 10 mM, N′-2-Hydroxyethylpiperazine-N′-2 ethanesulphonic acid (HEPES) 1M) for 2 hours at 37° C./5% CO2. The cells are then treated with 4 μl compounds/agonists (6×/3% DMSO) for a total volume of 24 μl, and plates are incubated for 1 hour at 37° C./5% CO2.
S1P1-U2OS cells are fixed with 25 μl Paraformaldehyde 8% and stained with Hoechst 33345 dye (1:1000) for 20 minutes.
They were then washed 3 times with Phosphate Buffered Saline (PBS) and plates are sealed. The internalization of the receptor S1P1-EGFP is measured on Cellomics by calculating the “spot count per object” (“object” corresponds to nuclear and “spot” corresponds to S1P1-EGFP receptor). Internalization data were observed thanks to vHCS View and analyzed using Genedata® software.
Target sequence in this assay (P21453 whole entry): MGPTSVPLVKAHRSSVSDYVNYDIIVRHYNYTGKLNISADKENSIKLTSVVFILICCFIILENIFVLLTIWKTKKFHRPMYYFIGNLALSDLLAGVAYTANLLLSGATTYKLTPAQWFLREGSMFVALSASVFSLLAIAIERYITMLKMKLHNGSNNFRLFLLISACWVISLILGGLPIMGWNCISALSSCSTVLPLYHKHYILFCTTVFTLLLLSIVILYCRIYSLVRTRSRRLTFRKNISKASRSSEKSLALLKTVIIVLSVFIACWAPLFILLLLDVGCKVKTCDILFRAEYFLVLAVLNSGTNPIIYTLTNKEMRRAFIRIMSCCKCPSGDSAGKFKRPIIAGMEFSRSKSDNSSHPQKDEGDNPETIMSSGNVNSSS

S1P1 [2] = target: T1, S1P1; assay: Receptor binding assay, [33P]sphingosine 1-phosphate competition (SPA), S1P1
Protocol: Cells were suspended in 50 mM TRIS, pH 7.4, 2 mM EDTA, 250 mM Sucrose (buffer A) and 1× Complete protease inhibitor cocktail (Roche), and disrupted at 4° C. by N2 decompression using a cell disruption bomb (Parr Instrument). […] The pellet was then suspended in 10 mM HEPES, pH 7.4, 1 mM EDTA, 250 mM Sucrose (Buffer B), and 1× Complete EDTA-free protease inhibitor cocktail and homogenized using a potter. Membranes were flash frozen in liquid N2 and stored at −80° C.
[33P]sphingosine 1-phosphate (3000 Ci/mmol; American Radiolabeled Chemicals, Inc.) was added to test compounds in 20% DMSO by competition. […] Triplicate samples were averaged and normalized as percentage of inhibition relative to total binding (only DMSO in well) and non-specific binding (1000-fold excess of unlabeled S1P). Binding data were analyzed using the GraphPad Prism program or Genedata software.
Target sequence in this assay (P21453 whole entry, species assumed): as the sequence (P21453 whole entry) above

S1P3 = S1P3 (Homo sapiens, UniProt Q99500); assay: Receptor binding assay, [33P]sphingosine 1-phosphate competition (SPA), S1P3
Protocol: Membranes were prepared from CHO cells expressing S1P1 or S1P3 for use in ligand and […] binding studies. Cells were suspended in 50 mM TRIS, pH 7.4, 2 mM EDTA, 250 mM Sucrose (buffer A) and 1× Complete protease inhibitor cocktail (Roche), and disrupted at 4° C. by N2 decompression using a cell disruption bomb (Parr Instrument). Following centrifugation at 1000 RPM for 10 min at 4° C., the supernatant was diluted (2×) in buffer A and centrifuged again at 19000 RPM for 75 min at 4° C. The pellet was then suspended in 10 mM HEPES, pH 7.4, 1 mM EDTA, 250 mM Sucrose (Buffer B), and 1× Complete EDTA-free protease inhibitor cocktail and homogenized using a potter. Membranes were flash frozen in liquid N2 and stored at −80° C.
[33P]sphingosine 1-phosphate (3000 Ci/mmol; American Radiolabeled Chemicals, Inc.) was added to test compounds in 20% DMSO by competition. Membranes and WGA SPA beads (GE Healthcare) were added to give a final volume of 100 μl in 96-well plates or 50 μl in 384-well plates with assay concentrations of 30 pM or 15 pM [33P]sphingosine 1-phosphate (respectively for S1P1 or S1P3), 50 mM HEPES, pH 7.5, 5 mM MgCl2, 100 mM NaCl, 0.4% fatty acid-free BSA, 1-5 μg/well of proteins in 96-well plates vs 0.6-1 μg/well of proteins in 384-well plates and 100 μg/well of WGA SPA beads in 96-well plates vs 75 μg/well of WGA SPA beads in 384-well plates. Binding was performed for 60 min at RT on a shaker and bound radioactivity was measured on a PerkinElmer 1450 MicroBeta counter. Triplicate samples were averaged and normalized as percentage of inhibition relative to total binding (only DMSO in well) and non-specific binding (1000-fold excess of unlabeled S1P). Binding data were analyzed using the GraphPad Prism program or Genedata software.

[3] = 96 well-plate, read-out: S1P1 binding Ki (M) (96 well-plate)
[4] = 384 well-plate, read-out: S1P1 binding Ki (M) (384 well-plate)
[5] = 96 well-plate, read-out: S1P3 binding Ki (M) (96 well-plate)
[6] = 384 well-plate, read-out: S1P3 binding Ki (M) (384 well-plate)

Chain of S1P3 (Q99500 whole entry, species assumed): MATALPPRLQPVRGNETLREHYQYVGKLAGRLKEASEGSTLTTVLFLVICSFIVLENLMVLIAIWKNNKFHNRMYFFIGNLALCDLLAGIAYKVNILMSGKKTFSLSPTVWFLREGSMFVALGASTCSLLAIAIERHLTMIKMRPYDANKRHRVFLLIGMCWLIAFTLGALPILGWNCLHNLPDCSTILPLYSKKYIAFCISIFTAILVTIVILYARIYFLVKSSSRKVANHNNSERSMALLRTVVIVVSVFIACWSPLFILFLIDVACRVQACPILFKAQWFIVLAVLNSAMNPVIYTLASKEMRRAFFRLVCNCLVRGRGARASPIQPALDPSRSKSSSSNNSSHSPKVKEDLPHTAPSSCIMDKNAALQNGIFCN

| SMILES | EC50 (S1P1 [1]) [nM] | Ki (S1P1 [2]; [3]) [M] | Ki (S1P1 [2]; [4]) [M] | Ki (S1P3; [5]) [M] | Ki (S1P3; [6]) [M] |
| --- | --- | --- | --- | --- | --- |
| COCc1cc(-c2nc(-c3cccc(CN(C)CC(=O)O)c3)no2)ccc1-c1ccccc1C(F)(F)F [Example 49, N-(3-{5-[2-(methoxymethyl)-2′-(trifluoromethyl)biphenyl-4-yl]-1,2,4-oxadiazol-3-yl}benzyl)-N-methylglycine] | 11.3 | 8.7e-10 | 2.35e-09 | 1.5e-06 | 1.41e-06 |
| COCc1cc(-c2nc(-c3cccc(CN(C)CC(=O)O)c3)no2)ccc1-c1ccc(F)cc1C(F)(F)F [Example 50, N-(3-{5-[4′-fluoro-2-(methoxymethyl)-2′-(trifluoromethyl)biphenyl-4-yl]-1,2,4-oxadiazol-3-yl}benzyl)-N-methylglycine] | 25.3 | 8.49e-10 | 1.24e-08 | 7.71e-07 | 1.18e-06 |
| Cc1ccccc1-c1ccc(-c2nc(-c3cc(F)cc(CN(C)CC(=O)O)c3)no2)cc1C(F)(F)F [Example 64, N-(3-fluoro-5-{5-[2′-methyl-2-(trifluoromethyl)biphenyl-4-yl]-1,2,4-oxadiazol-3-yl}benzyl)-N-methylglycine] | 8.11 | 2.96e-10 |  | 3.68e-08 |  |
| CN(CC(=O)O)Cc1cc(F)cc(-c2noc(-c3ccc(-c4ccccc4)c(C(F)(F)F)c3)n2)c1 [Example 67] | 11.9 | 2.31e-10 |  | 3.69e-08 |  |
| CN(CC(=O)O)Cc1cccc(-c2noc(-c3ccc(-c4ccccc4)c(C(F)(F)F)c3)n2)c1 [Example 68] | 11.2 | 3.57e-10 |  | 1.09e-07 |  |
| CCN(CCC(=O)O)Cc1cccc(-c2noc(-c3ccc(-c4ccccc4C)c(C(F)(F)F)c3)n2)c1 [Example 69, N-ethyl-N-(3-{5-[2′-methyl-2-(trifluoromethyl)biphenyl-4-yl]-1,2,4-oxadiazol-3-yl}benzyl)-beta-alanine] | 8.97 | 2.21e-10 | 1.47e-09 | 4.67e-08 |  |

Second part, the compound after the results:

| EC50 (S1P1 [1]) [nM] | Ki (S1P1 [2]; [3]) [M] | Ki (S1P1 [2]; [4]) [M] | Ki (S1P3; [5]) [M] | Ki (S1P3; [6]) [M] | SMILES |
| --- | --- | --- | --- | --- | --- |
|  |  |  | 1.31e-07 |  | Cc1ccccc1-c1ccc(-c2nc(-c3ccc(CN(C)CCC(=O)O)c(F)c3)no2)cc1C(F)(F)F [Example 71, N-(2-fluoro-4-{5-[2′-methyl-2-(trifluoromethyl)biphenyl-4-yl]-1,2,4-oxadiazol-3-yl}benzyl)-N-methyl-beta-alanine] |
| 2.05 | 2.7e-10 |  | 1.88e-07 |  | Cc1ccccc1-c1ccc(-c2nc(-c3ccc(CN(C)CCC(=O)O)cc3)no2)cc1C(F)(F)F [Example 72] |
| 11.4 | 4.12e-10 | 2.74e-09 | 8.31e-07 | 8.55e-07 | Cc1ccccc1-c1ccc(-c2nc(-c3ccc(CN(C)CC(=O)O)cc3)no2)cc1C(F)(F)F [Example 81, N-methyl-N-(4-{5-[2′-methyl-2-(trifluoromethyl)biphenyl-4-yl]-1,2,4-oxadiazol-3-yl}benzyl)glycine] |
| 56.7 |  | 6.22e-09 |  |  | CCc1ccccc1-c1ccc(-c2nc(-c3ccc(CN(C)CC(=O)O)c(F)c3)no2)cc1C(F)(F)F [Example 110, N-(4-{5-[2′-ethyl-2-(trifluoromethyl)biphenyl-4-yl]-1,2,4-oxadiazol-3-yl}-2-fluorobenzyl)-N-methylglycine] |
| 45.9 |  | 3.68e-09 |  |  | Cc1ccccc1-c1ccc(-c2nc(-c3ccc(Cl)c(CN(C)CC(=O)O)c3)no2)cc1C(F)(F)F [Example 111, N-(2-chloro-5-{5-[2′-methyl-2-(trifluoromethyl)biphenyl-4-yl]-1,2,4-oxadiazol-3-yl}benzyl)-N-methylglycine] |
| 50.4 |  | 3.24e-09 |  |  | Cc1ccccc1-c1ccc(-c2nc(-c3cccc(CN(CC(=O)O)C(C)C)c3)no2)cc1C(F)(F)F [Example 117, (Isopropyl-{3-[5-(2′-methyl-2-trifluoromethyl-biphenyl-4-yl)-[1,2,4]oxadiazol-3-yl]-benzyl}-amino)-acetic acid] |
| 26.1 |  | 2.63e-09 |  |  | CN(CC(=O)O)Cc1ccc(-c2noc(-c3ccc(-c4ccccc4C(F)(F)F)c(Cl)c3)n2)cc1 [Example 135] |

From patent publication US8802704B2, “Oxadiazole derivatives” (Merck Serono SA, priority 2009, dated 2014)
